Where two headings read alike, the source gives them in different places.
Experiments:
[1] = biological target: T1, FLT3 (Homo sapiens, UniProt P36888); experiment: RBC HotSpot Kinase Assay, FLT3; format: biochemical; design: purchased RBC (Reaction Biology) HotSpot assay; details: HotSpot functional assay, isolated kinase enzyme, 33P-ATP
T1 sequence (P36888 27-993): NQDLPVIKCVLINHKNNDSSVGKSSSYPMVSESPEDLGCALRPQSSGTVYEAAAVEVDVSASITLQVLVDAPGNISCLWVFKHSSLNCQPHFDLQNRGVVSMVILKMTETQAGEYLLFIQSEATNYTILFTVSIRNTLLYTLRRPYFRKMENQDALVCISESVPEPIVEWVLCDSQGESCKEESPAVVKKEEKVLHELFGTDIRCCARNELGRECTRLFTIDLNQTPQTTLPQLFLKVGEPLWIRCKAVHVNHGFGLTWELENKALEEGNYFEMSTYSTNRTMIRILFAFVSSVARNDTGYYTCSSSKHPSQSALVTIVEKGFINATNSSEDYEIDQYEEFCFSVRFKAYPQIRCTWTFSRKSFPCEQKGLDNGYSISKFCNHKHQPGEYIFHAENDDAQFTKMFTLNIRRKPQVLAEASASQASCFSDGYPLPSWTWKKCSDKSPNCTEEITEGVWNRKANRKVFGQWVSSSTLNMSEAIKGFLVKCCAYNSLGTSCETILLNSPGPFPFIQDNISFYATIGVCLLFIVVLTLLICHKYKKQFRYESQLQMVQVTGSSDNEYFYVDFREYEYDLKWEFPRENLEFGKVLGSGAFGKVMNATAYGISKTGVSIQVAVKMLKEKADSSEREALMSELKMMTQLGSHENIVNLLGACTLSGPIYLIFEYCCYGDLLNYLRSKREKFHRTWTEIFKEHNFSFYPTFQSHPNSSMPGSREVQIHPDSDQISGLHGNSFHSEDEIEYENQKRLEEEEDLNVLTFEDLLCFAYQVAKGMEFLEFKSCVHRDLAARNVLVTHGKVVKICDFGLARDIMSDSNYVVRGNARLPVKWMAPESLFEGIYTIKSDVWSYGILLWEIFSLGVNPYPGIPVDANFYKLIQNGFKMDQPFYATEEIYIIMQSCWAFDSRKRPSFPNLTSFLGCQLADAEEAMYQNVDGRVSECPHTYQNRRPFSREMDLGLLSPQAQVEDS
Outline: (§1)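 Isolated kinases, possibly truncated or lacking regulatory receptor regions, were preincubated with compound for 20 min at room temp in 20 mM Hepes pH 7.5, 10 mM MgCl2, 1 mM EGTA, 2 mM DTT, 1% DMSO. Reactions were started with ^33P-ATP and run 2 h at room temperature; activity was read by P81 filter binding.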

[2] = biological target: T2, IRAK4 (Homo sapiens, UniProt Q9NWZ3); experiment: RBC HotSpot Kinase Assay, IRAK4; format: biochemical; design: purchased RBC (Reaction Biology) HotSpot assay; details: HotSpot functional assay, isolated kinase enzyme, 33P-ATP
T2 sequence (Q9NWZ3 1-460): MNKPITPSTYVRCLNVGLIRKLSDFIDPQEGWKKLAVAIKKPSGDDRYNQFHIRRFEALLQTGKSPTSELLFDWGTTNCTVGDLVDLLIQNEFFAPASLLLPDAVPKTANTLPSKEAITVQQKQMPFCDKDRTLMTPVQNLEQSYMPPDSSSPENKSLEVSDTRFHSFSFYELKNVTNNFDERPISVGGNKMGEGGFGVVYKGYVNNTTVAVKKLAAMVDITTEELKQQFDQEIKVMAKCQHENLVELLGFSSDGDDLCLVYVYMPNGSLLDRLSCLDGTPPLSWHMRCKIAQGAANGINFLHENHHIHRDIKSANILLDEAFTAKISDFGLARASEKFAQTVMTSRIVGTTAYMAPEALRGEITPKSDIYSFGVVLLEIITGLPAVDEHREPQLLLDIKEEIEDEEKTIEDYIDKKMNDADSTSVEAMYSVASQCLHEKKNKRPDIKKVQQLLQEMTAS
Outline: as §1

[3] = biological target: T3, IRAK1 (Homo sapiens, UniProt P51617); experiment: RBC HotSpot Kinase Assay, IRAK1; format: biochemical; details: HotSpot functional assay, isolated kinase enzyme, 33P-ATP
T3 construct: purchased RBC (Reaction Biology) HotSpot assay
T3 sequence (P51617 whole entry): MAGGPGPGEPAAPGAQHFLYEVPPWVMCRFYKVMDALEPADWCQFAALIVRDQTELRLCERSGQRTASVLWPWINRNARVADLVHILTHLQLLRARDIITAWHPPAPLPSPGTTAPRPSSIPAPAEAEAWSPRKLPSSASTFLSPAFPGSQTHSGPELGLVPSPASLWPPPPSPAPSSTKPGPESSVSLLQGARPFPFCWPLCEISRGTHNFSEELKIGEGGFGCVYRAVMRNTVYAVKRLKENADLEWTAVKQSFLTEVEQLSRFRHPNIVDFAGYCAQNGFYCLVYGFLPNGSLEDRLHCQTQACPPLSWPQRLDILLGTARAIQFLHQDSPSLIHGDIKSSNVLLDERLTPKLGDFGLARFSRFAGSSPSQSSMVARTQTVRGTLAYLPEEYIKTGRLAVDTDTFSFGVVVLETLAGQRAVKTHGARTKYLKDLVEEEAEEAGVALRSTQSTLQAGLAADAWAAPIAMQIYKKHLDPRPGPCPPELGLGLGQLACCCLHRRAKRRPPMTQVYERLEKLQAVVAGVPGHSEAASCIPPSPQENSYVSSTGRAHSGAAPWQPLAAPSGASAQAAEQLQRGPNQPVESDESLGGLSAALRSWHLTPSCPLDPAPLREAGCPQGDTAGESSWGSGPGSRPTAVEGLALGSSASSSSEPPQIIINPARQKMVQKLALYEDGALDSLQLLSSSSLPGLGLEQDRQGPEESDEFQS
Outline: as §1

[4] = tested on: NF-κB; experiment: NF-kB assay in THP-1-Blue NF-κB cells (SEAP reporter); format: cell-based
Experimental: THP-1-Blue NF-κB cells (InvivoGen) carrying a stable integrated NF-κB-inducible secreted embryonic alkaline phosphatase (SEAP) reporter construct were plated at a concentration of 1×10^5 cells per well. The cells were stimulated with Pam3CSK4 (1 ng/mL) or hIL1B (Ing/mL). After 10-20 minutes, the cells were then treated with vehicle (DMSO) or serial dilutions of the test compounds (10 doses tested for each test compound, with a 1:10 dilution series starting at 1 μM or 3 μM) with a final volume of 200 μL for 24 hours at 37° C. After 24 hours, the cells were centrifuged and 20 IL supernatant was incubated with 180 μL QUANTI-Blue reagent at 37° C. for 30-60 minutes. The levels of NF-κB-induced was measured in a microplate reader at 620 nm.

[5] = tested on: MOLM14 D835Y cells; experiment: MOLM14 D835Y cell viability assay (Cell Titer Glo); format: cell-based
[6] = THP-1-Blue NF-κB cells stimulated with Pam3CSK4, 24 hours, read-out: NF-κB Pam3SCK4 IC50
[7] = THP-1-Blue NF-κB cells stimulated with hIL1B, 24 hours, read-out: NF-κB IL1B IC50

| Compound | IC50 [1] [nM] | IC50 [2] [nM] | IC50 [3] [nM] | IC50 [4, 6] [nM] | IC50 [4, 7] [nM] | IC50 ([5]; Homo sapiens, MOLM-14, 48 h) [nM] | IC50 ([5]; 48 hours) [nM] |
| --- | --- | --- | --- | --- | --- | --- | --- |
| COc1cc2ncc(-c3nc(N[C@H]4CNCC[C@@H]4F)c(F)cc3F)n2nc1C1CC2(CCC2)C1 [Compound 10a, 3,5-difluoro-N-((3S,4S)-4-fluoropiperidin-3-yl)-6-(7-methoxy-6-(spiro[3.3]heptan-2-yl)imidazo[1,2-b]pyridazin-3-yl)pyridin-2-amine] | < 0.5 | 22 | 72 |  |  |  |  |
| COc1cc2ncc(-c3nc(N[C@H]4CNCC[C@@H]4F)c(F)cc3F)n2nc1C12CC(C1)C2 [Compound 67a, 6-(6-(bicyclo[1.1.1]pentan-1-yl)-7-methoxyimidazo[1,2-b]pyridazin-3-yl)-3,5-difluoro-N-((3S,4S)-4-fluoropiperidin-3-yl)pyridin-2-amine] | < 0.5 | 3 | 9 | 284 | 331 |  |  |
| COc1cc2ncc(-c3nc(N[C@H]4CNCC[C@@H]4F)c(F)cc3F)n2nc1C1CCC1 [Compound 15a, 6-(6-cyclobutyl-7-methoxyimidazo[1,2-b]pyridazin-3-yl)-3,5-difluoro-N-((3S,4S)-4-fluoropiperidin-3-yl)pyridin-2-amine] | < 0.5 | 2 | 12 | 108 | 136 | 18 |  |
| COc1cc2ncc(-c3nc(N[C@@H]4CCCNC4)c(F)cc3F)n2nc1C(C)(O)C(F)(F)F (single isomer, unassigned) [Compound 81a] | < 0.5 | 59 | 589 |  |  |  | 6 |
| COc1cc2ncc(-c3nc(N[C@H]4CNC[C@@H]4F)c(F)cc3F)n2nc1C(C)(O)C(F)(F)F (single isomer, unassigned) [Compound 80a] | < 0.5 | 24 | 1550 |  |  |  | 23 |
| COc1cc2ncc(-c3nc(N[C@H]4CNCC[C@@H]4F)c(F)cc3F)n2nc1C(C)(O)C(F)(F)F (single isomer, unassigned) [Compound 77a] | < 0.5 | 16 | 362 | 166 | 254 |  | 8 |
| COc1cc2ncc(-c3nc(N[C@H]4CNC[C@@H]4F)c(F)cc3F)n2nc1C1CC2(CCC2)C1 [Compound 12a, 3,5-difluoro-N-((3S,4S)-4-fluoropyrrolidin-3-yl)-6-(7-methoxy-6-(spiro[3.3]heptan-2-yl)imidazo[1,2-b]pyridazin-3-yl)pyridin-2-amine] | < 0.5 | 6 | 88 |  |  |  |  |
